Reference: patent publication US20170313604A1, “Wastewater Treatment Method” (PeroxyChem LLC, priority 2016, published 2017)

Tested on: E. coli
Experiment: Full scale trial of peracetic acid disinfection at a wastewater treatment plant (E. coli by IDEXX Colisure method)
Parameters: species or system Escherichia coli
Procedure: A full scale trial of peracetic acid (15% PAA:23% hydrogen peroxide) disinfection was performed at a wastewater treatment plant in Tennessee, USA. The wastewater contained a high level of colored, aromatic molecules discharged from industrial sources involved in the processing of cotton seeds and other sources of lignin and bio-based polymers. The water quality, and as a result the peracetic acid (PAA) demand, was heavily dependent upon the cyclic discharge rates from these industrial sources. Thus, the PAA efficacy in reducing bacterial concentrations within the wastewater was not only dependent upon the overall flow rate of the WWTP, but also upon the time-dependent water quality. The time-dependent water quality demand on PAA at the treatment plant required the inclusion of a PAA feed-forward dosing scheme to insure that the proper dosing of PAA needed to achieve the target microbial reduction was maintained.
Initial testing consisted of collecting continuous, on-line data for four wastewater quality parameters: color, chemical oxygen demand (COD), oxidation/reduction potential (ORP) and UV transmittance (UVT) at 254 nm. Peracetic acid was measured in situ via the Prominent Dulcotest CTE sensor. The sensor was a membrane-capped amperometric, two electrode sensor for the measurement of PAA in aqueous solution. […] PAA contained in the sample water diffused through the membrane, causing a potential difference between electrodes. The primary signal was converted by the amplifier electronics of the sensor into a 4-20 mA, temperature corrected, output signal, which was optimally controlled via the DULCOMETER diaLog DACa controller. Wastewater color was measured on-line utilizing a ChemScan UV-3151 Series Analyzer with a flow-through sensor. The analyzer drew a sample of wastewater from the untreated side of the disinfection channel, representative of the influent wastewater, to the main unit, which was located in the control house. Wastewater COD and % UVT (% ultraviolet transmittance at 254 nm) were measured on-line using a submersible YSI CarboVis model 701 unit. E. coli analysis were performed by a third-party laboratory, using the IDEXX Colisure method.
The data for each quality parameter then was correlated to PAA demand, accounting for wastewater flow rate. E. coli concentrations were measured at the inflow to the disinfection channel, at the mid-point of the disinfection channel and at the outflow.
Subsequent testing was performed with wastewater color as the water quality parameter for feed-forward control of the PAA dose (PAAdemand), coupled with flow pacing.
At least three cycles of water quality (minimum to maximum wastewater color) were tested with flow rates ranging from 50 to 130 MGD. Sixty three E. coli concentrations were measured during this period. […]

[1] = effluent after PAA dosing with color feed-forward control plus flow pacing, flow 50 to 130 MGD, power-outage measurement eliminated

In the case of CC(=O)OO [PAA, peracetic acid], the “PAAset point to achieve the desired E. coli reduction” value (at demand neutral performance, this wastewater) was 7 ppm, the “E. coli concentration (all but one of sixty three measurements)” value (below the permitted daily maximum, the exception occurred in a power outage with no PAA dosed) was < 487 cfu/100 mL and the “E. coli arithmetic mean concentration” value [1] was 18 cfu/100 mL. The “E. coli geomean concentration” value [1] was 12 cfu/100 mL.
